These results are taken from ChEMBL document CHEMBL3286126, “Synthesis of novel β-carboline based chalcones with high cytotoxic activity against breast cancer cells” (Bioorg Med Chem Lett, 2014).

Activity calls are given as the source filed them. The calls are words filed in the database; no cut-off is given here.

The IC50 is the concentration at which inhibition is half-maximal. As a reminder, the inhibition is the change of the read-out against control, counted positive when it falls.

Experiment [1] relates to SK-OV-3. Nature of the experiment: Cytotoxicity against human SKOV3 cells after 48 hrs by SRB assay. Particulars: SK-OV-3, 48 h. Format: functional, cell-based. (The SRB assay estimates cell density from bound dye.)
Experiment [2] relates to MCF7. Briefly: Cytotoxicity against human MCF7 cells at 10 uM after 48 hrs by SRB assay. Format: functional. The note with it: MCF7, 48 h.
A short description of experiment [3]: Cytotoxicity against human PLC/PRF/5 cells at 10 uM after 48 hrs by SRB assay. It is filed as functional. Particulars: PLC-PRF-5, 48 h.
For experiment [4], the system named is 4T1. Briefly: Cytotoxicity against mouse 4T1 cells after 48 hrs by SRB assay. It is filed as functional, cell-based.
In experiment [5] the test system is A549. Briefly: Cytotoxicity against human A549 cells after 48 hrs by SRB assay. Format: functional, cell-based. Particulars: A549, 48 h.
In experiment [6] the test system is MDA-MB-231. Briefly: Cytotoxicity against human MDA-MB-231 cells after 48 hrs by SRB assay. It is filed as functional, cell-based.
Experiment [7] in a line: Cytotoxicity against human DLD1 cells at 10 uM after 48 hrs by SRB assay. It is filed as functional. The note with it: DLD-1, 48 h.
Experiment [8] deals with Vero. Nature of the experiment: Cytotoxicity against African green monkey Vero cells after 48 hrs by SRB assay. It is filed as cell-based. Particulars: Chlorocebus sabaeus.
For experiment [9], the system named is MCF7. Nature of the experiment: Cytotoxicity against human MCF7 cells after 48 hrs by SRB assay. It is filed as functional, cell-based. Particulars: for IC50: MCF7, 48 h.
A short description of experiment [10]: Cytotoxicity against human A172 cells after 48 hrs by SRB assay. It is filed as functional, cell-based. Particulars: A 172, 48 h.
The test system of experiment [11] is PC-3. Nature of the experiment: Cytotoxicity against human PC3 cells after 48 hrs by SRB assay. Format: functional, cell-based. Particulars: PC-3, 48 h.
Experiment [12] can be described thus: Cytotoxicity against human MIAPaCa2 cells at 10 uM after 48 hrs by SRB assay. It is filed as functional. Particulars: MIA PaCa-2, 48 h.
The test system of experiment [13] is A549. Briefly: Cytotoxicity against human A549 cells at 10 uM after 48 hrs by SRB assay. Format: functional. The note with it: A549, 48 h.
The subject of experiment [14] is SK-OV-3. Briefly: Cytotoxicity against human SKOV3 cells at 10 uM after 48 hrs by SRB assay. Format: functional. Particulars: SK-OV-3, 48 h.
In experiment [15] the test system is DU-145. Nature of the experiment: Cytotoxicity against human DU145 cells at 10 uM after 48 hrs by SRB assay. Format: functional. The note with it: DU-145, 48 h.
A short description of experiment [16]: Cytotoxicity against human A172 cells at 10 uM after 48 hrs by SRB assay. Format: functional. Particulars: A 172, 48 h.
Experiment [17] deals with MCF7. Briefly: Induction of apoptosis in human MCF7 cells assessed as late apoptotic cells after 24 hrs using 7-AAD/annexin-V staining by flow cytometry analysis. It is filed as functional. (In general: A flow cytometer gives signals particle by particle.)
For experiment [18], the system named is MCF7. Nature of the experiment: Induction of apoptosis in human MCF7 cells assessed as viable cells after 24 hrs using 7-AAD/annexin-V staining by flow cytometry analysis. It is filed as functional.
Experiment [19] concerns MCF7. Briefly: Induction of apoptosis in human MCF7 cells assessed as early apoptotic cells after 24 hrs using 7-AAD/annexin-V staining by flow cytometry analysis. Format: functional.
The test system of experiment [20] is MCF7. Briefly: Induction of apoptosis in human MCF7 cells assessed as DNA fragmentation at 10 uM after 24 hrs […] by APOBrdU TUNNEL assay. Format: functional, cell-based.
The test system of experiment [21] is MCF7. Briefly: Induction of apoptosis in human MCF7 cells assessed as necrotic cells after 24 hrs using 7-AAD/annexin-V staining by flow cytometry analysis. It is filed as functional.

Consider `COc1cc(C(=O)/C=C/c2nccc3c2[nH]c2ccccc23)cc(OC)c1OC`, for which the IC50 is above 10 µM in [1]; 5.41 µM in experiment [5]; above 10 µM in [8]; 3290 nM in [9]; above 10 µM in experiment [10]; above 10 µM in [11]. The inhibition at 10 µM in experiment [2] was 86.8%; in experiment [3], 73.9%; in experiment [7], 80.6%; in [12] it was 84.8%; in [13], 73.4%; in [14], 36.6%. Also, the values for the inhibition at 10 µM in experiment [15] and in experiment [16] were 76.1% and 65%, respectively. Besides, the Activity entry in experiment [4], in experiment [6] and in experiment [9] was “Dose-dependent effect” in each case.
Turning to `CCn1c2ccccc2c2ccnc(/C=C/C(=O)c3ccc(C)cc3)c21`, the inhibition at 10 µM in [2] was 30%; in experiment [3] it was 34.1%; in experiment [7] it was 44.1%; in experiment [12], 11.9%; in experiment [13], 16.4%; in experiment [14], 47.7%. The figures for the inhibition at 10 µM in experiment [15] and in [16] were 35% and 26.6%, respectively.
On to `COc1ccc(C(=O)/C=C/c2nccc3c4ccccc4n(C)c23)cc1OC`, for which the inhibition at 10 µM in [2] came out at 12.9%; in experiment [3], 42.4%; in experiment [7], 45.3%; in experiment [12] it was 7.71%; in [13], 19.6%; in experiment [14], 68.7%. Moreover, the results for the inhibition at 10 µM in experiment [15] and in [16] were 34.1% and 15.5%, respectively.
On to `O=C(/C=C/c1nccc2c1[nH]c1ccccc12)c1ccccc1`, for which the inhibition at 10 µM is 32.9% in experiment [2]; 76.7% in experiment [3]; 70.1% in experiment [7]; 21.7% in [12]; 11.7% in experiment [13]; 0.91% in experiment [14]. For the same compound, the inhibition at 10 µM is 20.1% in experiment [15] and 78.4% in experiment [16].
With `COc1cccc2c1C(=O)c1c(O)c3c(c(O)c1C2=O)C[C@@](O)(C(=O)CO)C[C@@H]3O[C@H]1C[C@H](N)[C@H](O)[C@H](C)O1` [DOXORUBICIN], the inhibition at 10 µM in experiment [2] came to 56.9%; in [3], 90.7%; in experiment [7], 73.2%; in experiment [12] it was 85.1%; in [13] it was 69%; in experiment [14] it was 69.2%. The results for the inhibition at 10 µM in experiment [15] and in [16] were 73.9% and 67.6%, respectively.
Consider `Cn1c2ccccc2c2ccnc(/C=C/C(=O)c3ccccc3)c21`, for which the inhibition at 10 µM in experiment [2] was 27.2%; in experiment [3], 64.9%; in [7] it was 67.5%; in [12] it was 25.5%; in experiment [13], 19.3%; in experiment [14] it was 28.6%. Besides, the inhibition at 10 µM in [15] stood at 53.2%; in experiment [16], 75.5%.
In the case of `CCn1c2ccccc2c2ccnc(/C=C/C(=O)c3cc(OC)c(OC)c(OC)c3)c21`, the inhibition at 10 µM in experiment [2] came out at 32.7%; in experiment [3], 70.7%; in experiment [7], 73.4%; in [12], 24.7%; in [13], 44.4%; in experiment [14] it was 68.5%. For the same compound, the inhibition at 10 µM was 60.1% in experiment [15] and 81.1% in experiment [16].
Consider `COc1ccc(C(=O)/C=C/c2nccc3c2[nH]c2ccccc23)cc1OC`, for which the Activity in experiment [17] was 39.5%; in experiment [18] it was 37%; in experiment [19], 20.4%; in [4] it was “Dose-dependent effect”; in experiment [6], “Dose-dependent effect”; in experiment [9] it was “Dose-dependent effect”. The Activity in experiment [21] was 3.12%. The IC50 in experiment [1] was above 10 µM; in [5], 2.31 µM; in experiment [8] it was above 10 µM; in [9], 2250 nM; in [10], 3.33 µM; in experiment [11], 5.99 µM. Besides, the inhibition at 10 µM in experiment [2] was determined as 94.5%; in experiment [3], 78.3%; in experiment [7] it was 88.1%; in experiment [12], 87.5%; in experiment [13], 84.7%; in experiment [14], 41.6%. Also, the results for the inhibition at 10 µM in experiment [15] and in [16] were 71.9% and 74.3%, respectively. Besides, the result in experiment [20] was Active.
As to `COc1ccc(C(=O)/C=C/c2nccc3c4ccccc4n(C)c23)cc1`, the inhibition at 10 µM in experiment [2] was 8.18%; in [3] it was 16.9%; in [7], 28.2%; in experiment [12], -0.03%; in experiment [13], -3.88%; in experiment [14], 37.4%. The values for the inhibition at 10 µM in experiment [15] and in experiment [16] were 9.1% and 0.18%, respectively.
Consider `O=C(/C=C/c1nccc2c1[nH]c1ccccc12)c1ccc(Cl)cc1`, for which the inhibition at 10 µM in experiment [2] was 15%; in experiment [3], 80.5%; in [7] it was 41.2%; in [12], -13.1%; in [13], 4.68%; in experiment [14], 0.2%. Also, the inhibition at 10 µM in experiment [15] stood at 7.63%; in [16], 75.8%.
